Patent US20260284014A1, “3,5-DIAMINOTRIAZOLE DERIVATIVES AND USES THEREOF FOR TREATING OCULAR DISEASES” (CENTRE NATIONAL DE LA RECHERCHE SCIENTIFIQUE, priority 2023, published 2026)

Columns and labels:
Type in all cases: cell-based
[1] = system: ERK activation (p-ERK); assay: p-ERK immunoblotting after CXCL8 stimulation; settings: 2.5 μM compound 1 h then 100 ng/ml CXCL8 for 15 min; read-out: E. p-ERK inhibition - TIME
Method: Cells were lysed in buffer containing 3% SDS, 10% glycerol and 0.825 mM Na2HPO4. 30 to 50 μg of proteins separated on 10% SDS-PAGE, transferred onto a PVDF membrane and then exposed to the appropriate antibodies. Proteins were visualized with the ECL system using horseradish peroxidase-conjugated anti-rabbit or anti-mouse antibodies.
(§1) All compounds were evaluated in different experiments. Results are represented as the mean of three independent experiments. A. ARPE-19 cells were treated with dose response of compound for 48 h. Values are reported as IC50 measured with the XTT assay. B and C. ARPE-19 cells were treated with 5 μM (B) or 1 μM (C) compound then with 200 μM H2O2 for 2 h. ROS were analyzed by cytometry. […] As illustrated in FIG. 1A. D. ARPE-19 cells were treated with 2.5 μM compound for 48 h and the level of CXCL1 mRNA was evaluated by qPCR. […] As illustrated in FIG. 1B. E. TIME cells were pre-treated with 2.5 μM compound for 1 h then stimulated with 100 ng/ml CXCL8 for 15 min p-ERK levels were analyzed by immunoblotting. HSP90 served as loading control. […] As illustrated in FIG. 1C.

[2] = system: ROS; assay: ROS labeling by cytometry after H2O2; settings: Homo sapiens, ARPE-19; for inhibition at 1 µM: 1 μM compound then 200 μM H2O2 for 2 h, read-out: C. ROS inhibition 1 μM - ARPE-19 cells; for inhibition at 5 µM: 5 μM compound then 200 μM H2O2 for 2 h, read-out: B. ROS inhibition 5 μM - ARPE-19 cells
Method: ARPE-19 cells were treated with MCK349 30 minutes then with 200 μM H2O2 for 2 h. 10 μM DCF-DA (2′,7′-Dichlorofluorescein diacetate) were added on cell media for 30 min. Cells were rinsed then detached (trypsin) and resuspended in PBS 0.5% BSA and 2 mM EDTA. The cells are analyzed by cytometry (ROS labeled with DCFDA-FITC).
as §1

[3] = system: ARPE-19 cells; assay: Cell viability (XTT assay); settings: Homo sapiens, 48 h, read-out: A. Safety IC50 on ARPE-19 cells
Method: ARPE-19 cells were incubated in a 96-well plate with different effectors for 48 hours. Fifty microliters of sodium 3′-[1-phenylaminocarbonyl)-3,4-tetrazolium]-bis(4-methoxy-6-nitro) benzene sulfonic acid hydrate (XTT) reagent was added to each well. The test is based on the cleavage of the yellow tetrazolium salt XTT to form an orange formazan dye by metabolically active cells. This bio-reduction occurs in viable cells only and is associated with NAD(P)H production through glycolysis. Therefore, the amount of formazan dye measured at 490 nm, correlates directly with the number of metabolically active cells reflecting cell proliferation, viability, and cytotoxicity. Each assay was performed in quadruplicate.
as §1

Compound	inhibition at 2.5 µM [1] [%]	inhibition at 1 µM [2] [%]	inhibition at 5 µM [2] [%]	IC50 [3] [µM]
Nc1nc(Nc2ccccc2)n(Cc2ccccc2)n1 [MCK248, 1-benzyl-N^5-phenyl-1H-1,2,4-triazole-3,5-diamine]	< 50	< 50	≥ 50	> 25
Nc1nc(Nc2ccccc2)nn1Cc1ccccc1 [MCK249, 1-benzyl-N^3-phenyl-1H-1,2,4-triazole-3,5-diamine]	< 50	< 50	≥ 50	> 25
Cc1ccccc1Cn1nc(Nc2ccccc2)nc1N [MCK250, 1-(2-methylbenzyl)-N^3-phenyl-1H-1,2,4-triazole-3,5-diamine]	< 50	≥ 50	≥ 50	> 25
Nc1nc(Nc2ccccn2)nn1Cc1ccccc1 [MCK253, 1-benzyl-N^3-(pyridin-2-yl)-1H-1,2,4-triazole-3,5-diamine]	< 50	< 50	< 50	> 25
Nc1nc(Nc2cccnc2)nn1Cc1ccccc1 [MCK254, 1-benzyl-N^3-(pyridin-3-yl)-1H-1,2,4-triazole-3,5-diamine]	< 50	< 50	< 50	> 25
Nc1nc(Nc2ccccc2)n(Cc2c(F)cccc2F)n1 [MCK257, 1-(2,6-difluorobenzyl)-N^5-phenyl-1H-1,2,4-triazole-3,5-diamine]	≥ 50	≥ 50	≥ 50	> 25
Nc1nc(Nc2ccccn2)nn1Cc1c(F)cccc1F [MCK259, 1-(2,6-difluorobenzyl)-N^3-(pyridin-2-yl)-1H-1,2,4-triazole-3,5-diamine]	≥ 50	< 50	< 50	> 25
COc1cccc(Cn2nc(N)nc2Nc2ccccc2)c1 [MCK260, 1-(3-methoxybenzyl)-N^5-phenyl-1H-1,2,4-triazole-3,5-diamine]	≥ 50	≥ 50	≥ 50	> 25
COc1cccc(Cn2nc(Nc3ccccc3)nc2N)c1 [MCK261, 1-(3-methoxybenzyl)-N^3-phenyl-1H-1,2,4-triazole-3,5-diamine]	≥ 50	< 50	≥ 50	> 25
CC(C)c1ccc(Cn2nc(N)nc2Nc2ccccc2)cc1 [MCK262, 1-(4-isopropylbenzyl)-N^5-phenyl-1H-1,2,4-triazole-3,5-diamine]	≥ 50	≥ 50	≥ 50	> 25
Nc1nc(Nc2ccccc2)nn1Cc1cccc(Br)c1 [MCK264, 1-(3-bromobenzyl)-N^3-phenyl-1H-1,2,4-triazole-3,5-diamine]	≥ 50	≥ 50	≥ 50	> 25
Nc1nc(Nc2ccccc2)nn1Cc1c(Cl)cccc1Cl [MCK268, 1-(2,6-dichlorobenzyl)-N^3-phenyl-1H-1,2,4-triazole-3,5-diamine]	≥ 50	< 50	≥ 50	> 25
Cc1ccccc1Cn1nc(Nc2ccccn2)nc1N [MCK269, 1-(2-methylbenzyl)-N^3-(pyridin-2-yl)-1H-1,2,4-triazole-3,5-diamine]	≥ 50	≥ 50	≥ 50	> 25
Cc1ccc(Cn2nc(Nc3ccccc3)nc2N)cc1 [MCK271, 1-(4-methylbenzyl)-N^3-phenyl-1H-1,2,4-triazole-3,5-diamine]	≥ 50	≥ 50	≥ 50	> 25
Nc1nc(Nc2ccccc2)nn1Cc1ccc(Cl)cc1 [MCK272, 1-(4-chlorobenzyl)-N^3-phenyl-1H-1,2,4-triazole-3,5-diamine]	≥ 50	< 50	≥ 50	> 25
Nc1nc(Nc2ccccc2)nn1Cc1cccc(C(F)(F)F)c1 [MCK273, N^3-phenyl-1-(3-(trifluoromethyl)benzyl)-1H-1,2,4-triazole-3,5-diamine]	≥ 50	≥ 50	≥ 50	> 25
Nc1nc(Nc2ccccc2)nn1Cc1cc(F)cc(F)c1 [MCK274, 1-(3,5-difluorobenzyl)-N^3-phenyl-1H-1,2,4-triazole-3,5-diamine]	< 50	≥ 50	≥ 50	> 25
Nc1nc(Nc2ccccc2)nn1Cc1cccc([N+](=O)[O-])c1 [MCK275]	< 50	≥ 50	≥ 50	> 25
Nc1nc(Nc2ccccn2)nn1Cc1cccc(Br)c1 [MCK276, 1-(3-bromobenzyl)-N^3-(pyridin-2-yl)-1H-1,2,4-triazole-3,5-diamine]	≥ 50	< 50	< 50	> 25
Nc1nc(Nc2ccccn2)nn1Cc1c(Cl)cccc1Cl [MCK278, 1-(2,6-dichlorobenzyl)-N^3-(pyridin-2-yl)-1H-1,2,4-triazole-3,5-diamine]	≥ 50	< 50	< 50	> 25
Cc1ccc(Cn2nc(Nc3ccccn3)nc2N)cc1 [MCK279, 1-(4-methylbenzyl)-N^3-(pyridin-2-yl)-1H-1,2,4-triazole-3,5-diamine]	≥ 50	< 50	< 50	> 25
Nc1nc(Nc2ccccn2)nn1Cc1ccc(Cl)cc1 [MCK280, 1-(4-chlorobenzyl)-N^3-(pyridin-2-yl)-1H-1,2,4-triazole-3,5-diamine]	≥ 50	< 50	< 50	> 25
N#Cc1ccc(Cn2nc(Nc3ccccn3)nc2N)cc1 [MCK281, 4-((5-amino-3-(pyridin-2-ylamino)-1H-1,2,4-triazol-1-yl)methyl)benzonitrile]	≥ 50	< 50	< 50	> 25
Nc1nc(Nc2ccccn2)nn1Cc1cccc(C(F)(F)F)c1 [MCK282, N^3-(pyridin-2-yl)-1-(3-(trifluoromethyl)benzyl)-1H-1,2,4-triazole-3,5-diamine]	≥ 50	< 50	< 50	> 25
Nc1nc(Nc2ccccn2)nn1Cc1cc(F)cc(F)c1 [MCK283, 1-(3,5-difluorobenzyl)-N^3-(pyridin-2-yl)-1H-1,2,4-triazole-3,5-diamine]	≥ 50	< 50	< 50	> 25
Nc1nc(Nc2ccccn2)nn1Cc1ccc(F)cc1F [MCK284, 1-(2,4-difluorobenzyl)-N^3-(pyridin-2-yl)-1H-1,2,4-triazole-3,5-diamine]	≥ 50	< 50	< 50	> 25
Nc1nc(Nc2ccccc2)nn1Cc1ccc([N+](=O)[O-])cc1 [MCK288]	< 50	≥ 50	≥ 50	> 25
Nc1nc(Nc2ccccn2)nn1Cc1ccccc1[N+](=O)[O-] [MCK289, 1-(2-nitrobenzyl)-N^3-(pyridin-2-yl)-1H-1,2,4-triazole-3,5-diamine]	< 50	≥ 50	≥ 50	> 25
Nc1nc(Nc2ccccn2)nn1Cc1ccc([N+](=O)[O-])cc1 [MCK290, 1-(4-nitrobenzyl)-N^3-(pyridin-2-yl)-1H-1,2,4-triazole-3,5-diamine]	≥ 50	≥ 50	≥ 50	> 25
Nc1nc(Nc2ccccn2)nn1Cc1cccc([N+](=O)[O-])c1 [MCK292, 1-(3-nitrobenzyl)-N^3-(pyridin-2-yl)-1H-1,2,4-triazole-3,5-diamine]	≥ 50	< 50	< 50	> 25
